Results reported in US7781446B2, “Use of CCI-779 as an antineoplastic agent” (Wyeth LLC, priority 2000, dated 2010).

Tests used:
[1] = test system: CRL-1161 human renal tumor cells; experiment: Human renal tumor cell xenograft in nude mice; format: in vivo, Balb/c nu/nu mice; details: CRL-1161 xenograft; for Tumor Mass / % T/C (Treated/Control × 100): 25 mg/kg oral
Procedure: (§1) In vivo test procedure: Female Balb/c nu/nu mice were obtained from Charles River Labs, Wilmington, Del., at 6-8 weeks of age. Mice (n=10/group) were injected sc with 5×10^6 cells resuspended in a 50% solution of Matrigel (BD Biosciences) and tumors allowed to develop. When tumor size reached 100 mg, mice were treated orally with CCI-779 at 25 mg/kg. CCI-779 was dosed for 5 consecutive days with repeated 14 day cycles throughout the duration of the experiment. The formulation used for CCI-779 was a 50% ethanol, 49% phosal, 1% tween 80 vehicle for resuspending CCI-779, where the stock was resuspended into a 1:10 dilution of the vehicle prior to dosing. Tumor growth was evaluated using a vernier caliper and volume (l×w×h) was converted to mass using the formula: 1×w^2/2.
(§2) The effect of CCI-779 in two human renal lines (HTB-44 and CRL-1161) was evaluated in vivo by engrafting tumor cells on the flanks of nude mice. Once tumors were established at a size of about 100 mg, mice were treated with CCI-779 or a vehicle control.

[2] = test system: HTB-44 human renal tumor cells; experiment: Human renal tumor cell xenograft in nude mice; format: in vivo, Balb/c nu/nu mice; details: HTB-44 xenograft; for Tumor Mass / % T/C (Treated/Control × 100): 25 mg/kg oral
Procedure: as §1, §2

[3] = test system: Renal tumor line CRL-1161; experiment: In vitro growth of human renal tumor cells, 3H-thymidine uptake; format: cell-based; details: 48 hours with drug
Procedure: (§3) In vitro test procedure: Renal tumor lines HTB-44 and CRL-1161 were obtained from the American Tissue Culture Collection (ATCC), Bethesda, Md. SN12-C line was obtained from Dr. J. Fidler, M. D. Anderson Hospital, Houston, Tex. Cells were plated in MEM (Gibco) supplemented with 2 mM glutamine, 1 mM sodium pyruvate, 5 ml penicillin-streptomycin solution, 1 mM non-essential amino acid solution, 10% fetal bovine solution. Cells (5×10^3) were plated in 96 well plates with a final volume of […] and incubated for 24 hours at 37° C. Log dilutions of CCI-779 beginning at 100 μg/ml were then added to the cultures for 48 hours. Over the last 5 hours, cells were pulsed with 1 μci ^3H-thymidine (New England Nuclear, 6.7 ci/m Mol). Cells were then harvested and the degree of thymidine uptake determined by liquid scintillation spectrometry. The IC50 was determined as the concentration that produced 50% of the maximum uptake of thymidine in control untreated cells.
(§4) Human renal cell tumors were cultured in vitro in the presence or absence of CCI-779 for 3 days and the effect on growth determined by ^3H-thymidine incorporation of control versus treated cells.

Renal tumor line SN12-C = experiment: as above; format: cell-based; details: 48 hours with drug
Procedure: as §3, §4

Renal tumor line HTB-44 = experiment: as above; format: cell-based; details: 48 hours with drug
Procedure: as §3, §4

[4] = test system: advanced cancer (solid tumors and lymphomas) refractory to standard therapy; experiment: Phase I clinical trial, 30 minute i.v. infusion daily for 5 days every two to three weeks; format: in vivo, human
Procedure: (§5) Two single agent (CCI-779) Phase I clinical trials have been conducted. In the first study, CCI-779 was administered as a 30 minute i.v. infusion daily for 5 days, every two to three weeks. In the second study, CCI-779 was administered as a 30 minute i.v. infusion, once weekly. Both trials were open label, ascending dose, single-arm, multicenter studies. Patients were allowed to continue treatment as long as the CCI-779 was tolerated and there was no evidence of obvious disease progression. The following eligibility criteria were used:
(§6) Inclusion Criteria • 1. Patients with a histologic diagnosis of advanced cancer (solid tumors and, in the first study, lymphomas) who are refractory to standard therapy or for whom standard therapy is not appropriate. • 2. Measurable or evaluable disease. • 3. At least 3 weeks since prior chemotherapy and/or radiation therapy (6 weeks since nitrosoureas or mitomycin C). • 4. At least 4 weeks since any other investigational agent. • 5. Age at least 18 years old. • 6. Adequate bone marrow, renal, and hepatic function. • 7. Serum cholesterol<350 mg/dL and triglycerides […]. • 8. ECOG performance status 0-2. • 9. Life expectancy of at least 3 months. • 10. Signed, dated, witnessed written informed consent.
(§7) A total of 63 patients and 24 patients were enrolled in first and second studies, respectively. Dose levels ranged from 0.75-24 mg/m^2 and 7.5-220 mg/m^2, with the daily×5 every 2 weeks and weekly schedules, respectively.

[5] = test system: advanced cancer (solid tumors) refractory to standard therapy; experiment: Phase I clinical trial, 30 minute i.v. infusion once weekly; format: in vivo, human; details: for number of partial responses: weekly dosage schedule
Procedure: as §5, §6, §7

[6] = 5 consecutive days, 14 day cycles, day 0
[7] = 25 mg/kg, versus vehicle control
[8] = Homo sapiens, read-out: CCI-779 IC50 (50% growth inhibitory concentration)
[9] = patients having soft tissue sarcoma, daily×5 dosage schedule
[10] = renal cancer patients, daily×5 schedule
[11] = patients having renal cancer, weekly schedule

CCI-779 IC50 (50% growth inhibitory concentration) [3]: low nM range
IC50 [3, 8]: 2 nM
CCI-779 IC50 (50% growth inhibitory concentration) (Renal tumor line SN12-C): low nM range
IC50 (Renal tumor line SN12-C; Homo sapiens, SN12C, read-out: CCI-779 IC50 (50% growth inhibitory concentration)): 5.5 nM
CCI-779 IC50 (50% growth inhibitory concentration) (Renal tumor line HTB-44): low nM range
IC50 (Renal tumor line HTB-44; [8]): 5 nM
Compound: CO[C@H]1C[C@@H]2CC[C@@H](C)[C@@](O)(O2)C(=O)C(=O)N2CCCC[C@H]2C(=O)O[C@H]([C@H](C)C[C@@H]2CC[C@@H](OC(=O)C(C)(CO)CO)[C@H](OC)C2)CC(=O)[C@H](C)/C=C(\C)[C@@H](O)[C@@H](OC)C(=O)[C@H](C)C[C@H](C)/C=C/C=C/C=C/1C [CCI-779, rapamycin 42-ester with 3-hydroxy-2-(hydroxymethyl)-2-methylpropionic acid]
Tumor Mass [1, 6]: 272 ± 14 mg
% T/C (Treated/Control × 100) ([1]; day 0): 100%
% T/C (Treated/Control × 100) ([1]; day 7): 62%
Tumor Mass ([1]; day 7): 219 ± 16 mg
% T/C (Treated/Control × 100) ([1]; day 21): 60%
Tumor Mass ([1]; day 21): 226 ± 17 mg
% T/C (Treated/Control × 100) ([1]; day 35): 42%
Tumor Mass ([1]; day 35): 200 ± 21 mg
% T/C (Treated/Control × 100) ([1]; day 49): 42%
Tumor Mass ([1]; day 49): 229 ± 28 mg
% T/C (Treated/Control × 100) ([1]; day 55): 53%
Tumor Mass ([1]; day 55): 268 ± 30 mg
inhibition of tumor cell growth in the mice [1, 7]: significant inhibition of tumor cell growth
Tumor Mass [2, 6]: 290 ± 15 mg
% T/C (Treated/Control × 100) ([2]; day 0): 101%
% T/C (Treated/Control × 100) ([2]; day 7): 71%
Tumor Mass ([2]; day 7): 156 ± 13 mg
% T/C (Treated/Control × 100) ([2]; day 21): 41%
Tumor Mass ([2]; day 21): 252 ± 48 mg
% T/C (Treated/Control × 100) ([2]; day 35): 41%
Tumor Mass ([2]; day 35): 453 ± 85 mg
% T/C (Treated/Control × 100) ([2]; day 49): 48%
Tumor Mass ([2]; day 49): 980 ± 155 mg
% T/C (Treated/Control × 100) ([2]; day 55): 44%
Tumor Mass ([2]; day 55): 1050 ± 183 mg
inhibition of tumor cell growth in the mice [2, 7]: significant inhibition of tumor cell growth
number of minor responses ([4]; patients having cervical cancer, daily×5 dosage schedule): one
number of partial responses ([4]; patients having non-small cell lung cancer, daily×5 dosage schedule): one
number of minor responses [4, 9]: 2
number of possible partial responses [4, 9]: 1
number of stable disease [4, 9]: 1
number of unconfirmed minor responses ([4]; patients having uterine cancer, daily×5 dosage schedule): one
duration of stable disease [4, 10]: approximately 5 months
number of minor responses [4, 10]: 1
number of stable disease (<25% increase to <25% reduction in tumor size) [4, 10]: 1
number of unconfirmed minor responses [4, 10]: 1
number of minor responses (≧25% but<50% reduction in tumor size) [5, 11]: 2
number of partial responses (≧50% reduction in tumor size) [5, 11]: 1
number of partial responses ([5]; patients with breast cancer): one
number of partial responses ([5]; patients with neuroendocrine tumor of the lung): one
